# Tests used:
# Assay type in all cases: in vivo
# [1] = test system: ragweed (common ragweed, Ambrosia elatior); assay: Test A postemergence, visual plant response rating; details: for Ragweed plant response rating (0 to 100 scale): 500 g ai/ha, postemergence, 0 is no effect, 100 is complete control; for Ragweed plant response rating: Postemergence, 125 g ai/ha, 0 to 100 scale (0 no effect, 100 complete control)
# In short: (§1)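 Ratings use a 0–100 visual scale (100 = complete control) against untreated controls, scored about 10 days after greenhouse treatment. Test chemicals were formulated in surfactant-containing non-phytotoxic solvent and applied either as soil spray after planting (preemergence) or onto one- to two-leaf, 2–10 cm plants (postemergence).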
# [2] = test system: galium (catchweed bedstraw, Galium aparine); assay: Test A postemergence, visual plant response rating; details: for Galium plant response rating (0 to 100 scale): 500 g ai/ha, postemergence, 0 is no effect, 100 is complete control; for Galium plant response rating: Postemergence, 125 g ai/ha, 0 to 100 scale (0 no effect, 100 complete control)
# In short: as §1
# [3] = test system: barnyardgrass (Echinochloa crus-galli); assay: Test A postemergence, visual plant response rating; details: for Barnyardgrass plant response rating (0 to 100 scale): 500 g ai/ha, postemergence, 0 is no effect, 100 is complete control; for Barnyardgrass plant response rating: Postemergence, 125 g ai/ha, 0 to 100 scale (0 no effect, 100 complete control)
# In short: as §1
# [4] = test system: corn (Zea mays); assay: Test A postemergence, visual plant response rating; details: for Corn plant response rating (0 to 100 scale): 500 g ai/ha, postemergence, 0 is no effect, 100 is complete control; for Corn plant response rating: Postemergence, 125 g ai/ha, 0 to 100 scale (0 no effect, 100 complete control)
# In short: as §1
# [5] = test system: pigweed (Amaranthus retroflexus); assay: Test A postemergence, visual plant response rating; details: for Pigweed plant response rating (0 to 100 scale): 500 g ai/ha, postemergence, 0 is no effect, 100 is complete control; for Pigweed plant response rating: Postemergence, 125 g ai/ha, 0 to 100 scale (0 no effect, 100 complete control)
# In short: as §1
# [6] = test system: kochia (Kochia scoparia); assay: Test A postemergence, visual plant response rating; details: for Kochia plant response rating (0 to 100 scale): 500 g ai/ha, postemergence, 0 is no effect, 100 is complete control; for Kochia plant response rating: Postemergence, 125 g ai/ha, 0 to 100 scale (0 no effect, 100 complete control)
# In short: as §1
# [7] = test system: blackgrass (Alopecurus myosuroides); assay: Test A postemergence, visual plant response rating; details: for Blackgrass plant response rating (0 to 100 scale): 500 g ai/ha, postemergence, 0 is no effect, 100 is complete control; for Blackgrass plant response rating: Postemergence, 125 g ai/ha, 0 to 100 scale (0 no effect, 100 complete control)
# In short: as §1
# [8] = test system: foxtail, giant (giant foxtail, Setaria faberii); assay: Test A postemergence, visual plant response rating; details: for Foxtail, Giant plant response rating (0 to 100 scale): 500 g ai/ha, postemergence, 0 is no effect, 100 is complete control; for Foxtail, Giant plant response rating: Postemergence, 125 g ai/ha, 0 to 100 scale (0 no effect, 100 complete control)
# In short: as §1
# [9] = test system: wheat (Triticum aestivum); assay: Test A postemergence, visual plant response rating; details: for Wheat plant response rating (0 to 100 scale): 500 g ai/ha, postemergence, 0 is no effect, 100 is complete control; for Wheat plant response rating: Postemergence, 125 g ai/ha, 0 to 100 scale (0 no effect, 100 complete control)
# In short: as §1
# [10] = test system: Italian ryegrass (Lolium multiflorum); assay: Test A postemergence, visual plant response rating; details: for Ryegrass, Italian plant response rating (0 to 100 scale): 500 g ai/ha, postemergence, 0 is no effect, 100 is complete control; for Ryegrass, Italian plant response rating: Postemergence, 125 g ai/ha, 0 to 100 scale (0 no effect, 100 complete control)
# In short: as §1
# [11] = test system: ragweed (common ragweed, Ambrosia elatior); assay: Test A preemergence, visual plant response rating; details: for Ragweed plant response rating: 125 g ai/ha, preemergence, 0 to 100 scale, 0 no effect, 100 complete control; for Ragweed plant response rating (0 to 100 scale): 500 g ai/ha Preemergence, approx. 10 days
# In short: as §1
# [12] = test system: barnyardgrass (Echinochloa crus-galli); assay: Test A preemergence, visual plant response rating; details: for Barnyardgrass plant response rating: 125 g ai/ha, preemergence, 0 to 100 scale, 0 no effect, 100 complete control; for Barnyardgrass plant response rating (0 to 100 scale): 500 g ai/ha Preemergence, approx. 10 days
# In short: as §1
# [13] = test system: pigweed (Amaranthus retroflexus); assay: Test A preemergence, visual plant response rating; details: for Pigweed plant response rating: 125 g ai/ha, preemergence, 0 to 100 scale, 0 no effect, 100 complete control; for Pigweed plant response rating (0 to 100 scale): 500 g ai/ha Preemergence, approx. 10 days
# In short: as §1
# [14] = test system: kochia (Kochia scoparia); assay: Test A preemergence, visual plant response rating; details: for Kochia plant response rating: 125 g ai/ha, preemergence, 0 to 100 scale, 0 no effect, 100 complete control; for Kochia plant response rating (0 to 100 scale): 500 g ai/ha Preemergence, approx. 10 days
# In short: as §1
# [15] = test system: foxtail, giant (giant foxtail, Setaria faberii); assay: Test A preemergence, visual plant response rating; details: for Foxtail, Giant plant response rating: 125 g ai/ha, preemergence, 0 to 100 scale, 0 no effect, 100 complete control; for Foxtail, Giant plant response rating (0 to 100 scale): 500 g ai/ha Preemergence, approx. 10 days
# In short: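 Preemergence: seeds in loam/sand blend given directed soil spray of compound in non-phytotoxic solvent with surfactant. Postemergence: plants 2–10 cm, one- to two-leaf stage, sprayed with same formulation. Visual injury rated vs untreated controls after ~10 days in greenhouse, 0 (no effect) to 100 (complete control).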
# [16] = test system: Italian ryegrass (Lolium multiflorum); assay: Test A preemergence, visual plant response rating; details: for Ryegrass, Italian plant response rating: 125 g ai/ha, preemergence, 0 to 100 scale, 0 no effect, 100 complete control; for Ryegrass, Italian plant response rating (0 to 100 scale): 500 g ai/ha Preemergence, approx. 10 days
# In short: as §1
# [17] = test system: ducksalad (Heteranhera limosa); assay: Test B flooded paddy test, visual plant response rating; details: 250 g ai/ha, Flood, applied to paddy water, 2-leaf stage, evaluated after 13 to 15 days
# In short: (§2)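 Visual scores compare treated plants with controls after 13 to 15 days of greenhouse growth. Treatment was made into paddy water standing 3 cm above the soil, with plants at the 2-leaf stage and flooding maintained throughout.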
# [18] = test system: barnyardgrass (Echinochloa crus-galli); assay: as above; details: 250 g ai/ha, Flood, applied to paddy water, 2-leaf stage, evaluated after 13 to 15 days
# In short: as §2
# [19] = test system: rice (Oryza sativa); assay: as above; details: 250 g ai/ha, Flood, applied to paddy water, 2-leaf stage, evaluated after 13 to 15 days
# In short: as §2
# [20] = test system: sedge, umbrella (small-flower umbrella sedge, Cyperus difformis); assay: as above; details: 250 g ai/ha, Flood, applied to paddy water, 2-leaf stage, evaluated after 13 to 15 days
# In short: as §2
Structure (SMILES),Ragweed plant response rating (0 to 100 scale) [1],Ragweed plant response rating [1],Galium plant response rating (0 to 100 scale) [2],Galium plant response rating [2],Barnyardgrass plant response rating (0 to 100 scale) [3],Barnyardgrass plant response rating [3],Corn plant response rating (0 to 100 scale) [4],Corn plant response rating [4],Pigweed plant response rating (0 to 100 scale) [5],Pigweed plant response rating [5],Kochia plant response rating (0 to 100 scale) [6],Kochia plant response rating [6],Blackgrass plant response rating (0 to 100 scale) [7],Blackgrass plant response rating [7],"Foxtail, Giant plant response rating (0 to 100 scale) [8]","Foxtail, Giant plant response rating [8]",Wheat plant response rating (0 to 100 scale) [9],Wheat plant response rating [9],"Ryegrass, Italian plant response rating (0 to 100 scale) [10]","Ryegrass, Italian plant response rating [10]",other results
CON=C(c1cccc(C)c1F)c1c(O)c(C)nn(C)c1=O [Compound 70],80,80,80,70,30,0,0,0,90,80,80,70,30,0,40,0,0,0,70,0,"Ragweed plant response rating [11]: 70; Ragweed plant response rating (0 to 100 scale) [11]: 80; Barnyardgrass plant response rating [12]: 0; Barnyardgrass plant response rating (0 to 100 scale) [12]: 10; Pigweed plant response rating [13]: 0; Pigweed plant response rating (0 to 100 scale) [13]: 40; Kochia plant response rating [14]: 0; Kochia plant response rating (0 to 100 scale) [14]: 50; Foxtail, Giant plant response rating [15]: 0; Foxtail, Giant plant response rating (0 to 100 scale) [15]: 10; Ryegrass, Italian plant response rating [16]: 0; Ryegrass, Italian plant response rating (0 to 100 scale) [16]: 10; Plant response rating, Ducksalad (0 to 100 scale, 0 is no effect, 100 is complete control) [17]: 0; Plant response rating, Barnyardgrass (0 to 100 scale, 0 is no effect, 100 is complete control) [18]: 0; Plant response rating, Rice (0 to 100 scale, 0 is no effect, 100 is complete control) [19]: 0; Plant response rating, Sedge, Umbrella (0 to 100 scale, 0 is no effect, 100 is complete control) [20]: 0"
CO/N=C(\c1cccc(C(F)(F)F)c1)c1c(O)c(C)nn(C)c1=O [Compound 71],60,20,80,60,30,10,10,0,70,60,60,50,50,20,20,10,40,20,40,40,"Ragweed plant response rating [11]: 10; Ragweed plant response rating (0 to 100 scale) [11]: 30; Barnyardgrass plant response rating [12]: 0; Barnyardgrass plant response rating (0 to 100 scale) [12]: 0; Pigweed plant response rating [13]: 20; Pigweed plant response rating (0 to 100 scale) [13]: 60; Kochia plant response rating [14]: 0; Kochia plant response rating (0 to 100 scale) [14]: 0; Foxtail, Giant plant response rating [15]: 0; Foxtail, Giant plant response rating (0 to 100 scale) [15]: 0; Ryegrass, Italian plant response rating [16]: 0; Ryegrass, Italian plant response rating (0 to 100 scale) [16]: 20; Plant response rating, Ducksalad (0 to 100 scale, 0 is no effect, 100 is complete control) [17]: 0; Plant response rating, Barnyardgrass (0 to 100 scale, 0 is no effect, 100 is complete control) [18]: 0; Plant response rating, Rice (0 to 100 scale, 0 is no effect, 100 is complete control) [19]: 10; Plant response rating, Sedge, Umbrella (0 to 100 scale, 0 is no effect, 100 is complete control) [20]: 0"
